Experimental data as given in US8466284B2, “Some 2-pyrazinone derivatives and their use as inhibitors of neutrophile elastase” (Astra Zeneca AB, priority 2007, dated 2013).

Assays:
[1] = target: T1, Human Neutrophil Elastase (HNE) (Homo sapiens, UniProt P08246); assay: Human Neutrophil Elastase Quenched-FRET Assay; assay type: biochemical; details: 1.7 nM HNE, 100 μM MeOSuc-AAPV-AMC, 15 min pre-incubation, 30 min at room temperature; read-out: Inhibition of Human Neutrophil Elastase IC50
T1 construct: Human Neutrophil Elastase (HNE) purified from serum; purchased Calbiochem 324681; host or cells: purified from serum (natural human source, not recombinant)
T1 sequence (P08246 30-247 limits assumed): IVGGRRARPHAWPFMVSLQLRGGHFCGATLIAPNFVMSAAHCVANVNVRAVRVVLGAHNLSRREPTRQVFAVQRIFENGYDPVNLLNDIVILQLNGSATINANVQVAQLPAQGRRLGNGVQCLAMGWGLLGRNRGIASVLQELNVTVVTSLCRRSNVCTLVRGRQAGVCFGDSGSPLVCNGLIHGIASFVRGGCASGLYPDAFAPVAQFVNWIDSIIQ
Protocol: Human Neutrophil Elastase Quenched-FRET Assay
The assay uses Human Neutrophil Elastase (HNE) purified from serum (Calbiochem art. 324681; Ref. Baugh, R. J. et al., 1976, Biochemistry. 15, 836-841). HNE was stored in 50 mM sodium acetate (NaOAc), 200 mM sodium chloride (NaCl), pH 5.5 with added 30% glycerol at −20° C. The protease substrate used was Elastase Substrate V Fluorogenic, MeOSuc-AAPV-AMC (Calbiochem art. 324740; Ref. Castillo, M. J. et al., 1979, Anal. Biochem. 99, 53-64). The substrate was stored in dimethyl sulphoxide (DMSO) at −20° C. The assay additions were as follows: Test compounds and controls were added to black 96-well flat-bottom plates (Greiner 655076), 1 μL in 100% DMSO, followed by 30 μL HNE in assay buffer with 0.01% Triton (trade mark) X-100 detergent. The assay buffer constitution was: 100 mM Tris(hydroxymethyl)aminomethane (TRIS) (pH 7.5) and 500 mM NaCl. The enzyme and the compounds were incubated at room temperature for 15 minutes. Then 30 μl substrate in assay buffer was added. The assay was incubated for 30 minutes at room temperature. The concentrations of HNE enzyme and substrate during the incubation were 1.7 nM and 100 μM, respectively. The assay was then stopped by adding […] stop solution (140 mM acetic acid, 200 mM sodium monochloroacetate, 60 mM sodium acetate, pH 4.3). Fluorescence was measured on a Wallac 1420 Victor 2 instrument at settings: Excitation 380 nm, Emission 460 nm. IC50 values were determined using Xlfit curve fitting using model 205.

[2] = Humidity interaction (Gravimetrical Vapour Sorption); assay type: physicochemical; details: 0 to 80% relative humidity (RH) at 25° C.
Protocol: is The gravimetric responses of test samples to changes in humidity were investigated using a TGA 5000 (TA Instruments) Gravimetrical Vapour Sorption (GVS). The relative humidity (RH) was raised in steps of 5% to 90% RH and lowered back to 0% RH in two cycles. Each level of RH was held until the equilibrium condition (sample weight change<0.01 wt % per 10 minutes) was reached. Measurements were normally made at 25° C. Approximately 5 mg of the test sample was placed in the cup and evaluated. The hygroscopicity was calculated as the relative change in weight of the sample between the two conditions 0% RH and 80% RH during the second cycle.

[3] = Thermal behaviour of the solid (DSC / TGA); assay type: physicochemical; details: solid state
Protocol: Using standard methods, for example those described in Höhne, G. W. H. et al (1996), Differential Scanning Calorimetry, Springer, Berlin, the calorimetric response of a test sample to increasing temperature was investigated using a TA Instruments Q2000 Modulated Temperature Differential Scanning Calorimeter (MTDSC). Measurements were performed between 15 and 300° C. using a modulation of ±0.50° C. in intervals of 40 seconds and a ramp rate of 5° C. per minute. Approximately 1 to 5 mg of test sample was placed in aluminium cups with lids (no crimping) under a nitrogen atmosphere.
Gravimetric Analysis (TGA)
The gravimetric response of test samples to increasing temperatures was investigated using a Q500 Thermal Gravimetric Analyser (TGA) (TA Instruments). The samples were heated in a flow of nitrogen gas with a heating rate of 10° C./min.
Approximately 1 to 3 mg of the test sample was placed in the cup and heated to approximately 300° C.

IC50 [1] | SMILES | water uptake (hygroscopicity) [2] | thermally stable below (no solvent loss nor other thermal event prior to melting) [3]
11 nM | Cc1c(-c2ccnn2-c2ccc(Cl)cc2)nc(C(N)=O)c(=O)n1-c1cccc(C(F)(F)F)c1 [Example 2, 6-[1-(4-Chlorophenyl)-1H-pyrazol-5-yl]-5-methyl-3-oxo-4-[3-(trifluoromethyl)phenyl]-3,4-dihydropyrazine-2-carboxamide] | – | –
3.5 nM | Cc1cc(-c2nc(C(N)=O)c(=O)n(-c3cccc(C(F)(F)F)c3)c2C)n(-c2ccc(C#N)cc2)n1 [Example 4, 6-[1-(4-Cyanophenyl)-3-methyl-1H-pyrazol-5-yl]-5-methyl-3-oxo-4-[3-(trifluoromethyl)phenyl]-3,4-dihydropyrazine-2-carboxamide] | – | –
4.2 nM | Cc1c(-c2ccnn2-c2ccc(C#N)cc2)nc(C(=O)NC2CC2)c(=O)n1-c1cccc(C#N)c1 [Example 5, 4-(3-Cyanophenyl)-6-[1-(4-cyanophenyl)-1H-pyrazol-5-yl]-N-cyclopropyl-5-methyl-3-oxo-3,4-dihydropyrazine-2-carboxamide] | – | –
1.4 nM | Cc1c(C2=NC(C)(C)CN2c2ccc(C#N)cc2)nc(C(N)=O)c(=O)n1-c1cccc(C(F)(F)F)c1 [Example 6, 6-(1-(4-Cyanophenyl)-4,4-dimethyl-4,5-dihydro-1H-imidazol-2-yl)-5-methyl-3-oxo-4-(3-(trifluoromethyl)phenyl)-3,4-dihydropyrazine-2-carb oxamide] | – | –

Further lines, the molecule ahead of its results:

SMILES | IC50 [1] | water uptake (hygroscopicity) [2] | thermally stable below (no solvent loss nor other thermal event prior to melting) [3]
Cc1c(-c2ccnn2-c2ccc(C#N)cc2)nc(C(N)=O)c(=O)n1-c1cccc(C(F)(F)F)c1 [Example 1 or 1a, 6-[1-(4-Cyanophenyl)-1H-pyrazol-5-yl]-5-methyl-3-oxo-4-[3-(trifluoromethyl)phenyl]-3,4-dihydropyrazine-2-carboxamide] | 2.2 nM | – | –
Cc1c(-c2ccnn2-c2ccc(C#N)cc2)nc(C(N)=O)c(=O)n1-c1cccc(C(F)(F)F)c1 [Example 1a, 6-[1-(4-Cyanophenyl)-1H-pyrazol-5-yl]-5-methyl-3-oxo-4-[3-(trifluoromethyl)phenyl]-3,4-dihydropyrazine-2-carboxamide Form A] | – | < 0.2 wt % | below 260 °C
Cc1c(-c2ccnn2-c2ccc(Cl)cn2)nc(C(N)=O)c(=O)n1-c1cccc(C(F)(F)F)c1 [Example 3, 6-[1-(5-Chloropyridin-2-yl)-1H-pyrazol-5-yl]-5-methyl-3-oxo-4-[3-(trifluoromethyl)phenyl]-3,4-dihydropyrazine-2-carboxamide] | 28 nM | – | –
